The record followed here is a melting point compilation (Tetko et al.).

One may read the melting point as the temperature of the solid-liquid transition.

`CC(C)(C)C1CCN(S(=O)(=O)Cl)CC1` yielded a melting point of 69 to 71 °C.

`O=C1c2ccccc2S(=O)(=O)N1CCl`: the melting point was 145 to 147 °C.

Turning to `O=C(O)CCSCc1nc2sc3c(c2c(=O)[nH]1)CCC3`, the melting point lay in the range of 227 to 229 °C.

As for `O=c1c(Cl)nccn1C1CC1`, the melting point lay within 90 to 92 °C.

`CCOC(=O)c1nc(Cl)c2ccccc2n1` had a melting point of 99 to 101 °C.

With `CS(=O)(=O)OCCn1cc(C#N)cn1`, the melting point was 64 to 66 °C.

Molecule `CCOC(=O)COc1ccc(S(C)(=O)=O)cc1[N+](=O)[O-]` registered a melting point of 131 to 133 °C.

`Nc1cc([N+](=O)[O-])ccn1` came in with a melting point of 96 to 98 °C.

The molecule `O=C(O)c1ccc(-n2cncn2)c([N+](=O)[O-])c1` showed a melting point of 274 to 276 °C.

The molecule `Cc1nn(C)c(C)c1C(CC(=O)O)C(F)(F)F` (stereo unspecified) had a melting point of 130 to 132 °C.

The molecule `COC(=O)c1c(N)sc(C)c1C` showed a melting point of 124 to 126 °C.

`Cc1ccc(C(=O)NC2CCNCC2)s1` registered a melting point of 163 to 165 °C.

`Nc1ccc2[nH]c(-c3cc(F)ccc3F)nc2c1` displayed a melting point of 188 to 190 °C.

Turning to `O=C(O)c1ccnc(C2CC2)n1`, the melting point was 218 to 220 °C.

`CC1(C)NC(=O)C1(C)C` returned a melting point of 95 to 97 °C.

In the case of `CC(C)(C)OC(=O)NCc1cn[nH]c1`, the melting point is 104 to 106 °C.

In turn, `N#CCc1cccnc1Cl` returned a melting point of 80 to 82 °C.

Molecule `N#Cc1cc(F)ccc1S(=O)(=O)Cl` came in with a melting point of 64 to 66 °C.

The molecule `Cc1cc(CO)nc(N2CCCCC2)n1` came in with a melting point of 51 to 53 °C.

Molecule `CC(C)(C)OC(=O)NC(CCC(=O)O)c1ccccc1` (stereo unspecified) came in with a melting point of 151 to 153 °C.

With `CC(C)n1cc(S(=O)(=O)Cl)cn1`, the melting point fell in the range of 53 to 55 °C.

Take `CC(C)C(NC(=O)CCc1ccccc1)C(=O)O` (stereo unspecified): the melting point lay in the range of 147 to 149 °C.

Consider `CS(=O)c1ccc(C=O)cc1` (stereo unspecified), for which the melting point was in the range of 88 to 90 °C.

As to `O=C(O)CCn1c(=O)oc2cc(Cl)ccc21`, the melting point lay in the range of 160 to 162 °C.

Regarding `CNS(=O)(=O)c1ccccc1N1CCC(N)CC1`, the melting point was 119 to 121 °C.

Molecule `O=C(Nc1ccco1)OCC(F)(F)F` came in with a melting point of 78 to 80 °C.

With `OCCn1c(CSc2nnc(-c3ccc4c(c3)OCO4)o2)nc2ccc(Cl)cc21`, the melting point fell in the range of 202 to 204 °C.

As to `O=C(Nc1ccccc1)C(Cl)c1ccccc1` (stereo unspecified), the melting point is 150 to 152 °C.

For the molecule `CCOc1ccccc1OCC(=O)O`, the melting point fell in the range of 44 to 46 °C.

Regarding `CCC1(C(=O)O)CCOCC1`, the melting point was in the range of 83 to 85 °C.

Turning to `CN(C)c1ccc(/C=C/c2cc(C(=O)O)c3cc(Br)ccc3n2)cc1`, the melting point lay within 298 to 300 °C.

As for `CCC(Nc1nc(C)cs1)C(=O)O` (stereo unspecified), the melting point fell in the range of 173 to 175 °C.

As to `O=C(O)CN1CC(=O)Oc2ccccc21`, the melting point was in the range of 176 to 178 °C.

Regarding `NC(=O)C1CC(C(=O)O)=NN1c1ccc(F)cc1` (stereo unspecified), the melting point lay within 219 to 221 °C.

`COc1ccccc1OCC(=O)Nc1cccc(N)c1` displayed a melting point of 104 to 106 °C.

Take `COc1ccc(-n2cnnc2S)cn1`: the melting point is 199 to 201 °C.

For the molecule `O=C(O)c1cnc2ccc(Br)cn2c1=O`, the melting point was in the range of 218 to 220 °C.

`O=C(CCl)NCc1ccccc1CN1CCCC1=O`: the melting point is 125 to 127 °C.

In the case of `Cn1cc(C(=O)O)c(C(F)(F)F)n1`, the melting point lay within 210 to 212 °C.

The molecule `O=C(O)c1cn(Cc2ccccc2)c2ccccc12` yielded a melting point of 192 to 194 °C.

Take `O=C(CBr)c1sccc1Br`: the melting point lay in the range of 60 to 62 °C.

`CC1(c2ccc(Cl)s2)NC(=O)NC1=O` (stereo unspecified) showed a melting point of 183 to 185 °C.

In the case of `O=C(O)CN1C(=O)COc2ccc([N+](=O)[O-])cc21`, the melting point was 200 to 202 °C.

`O=C(O)c1cccc2cccc(-c3cccc4cccc(C(=O)O)c34)c12`: the melting point fell in the range of 284 to 286 °C.

On to `OCC1NCCc2ccccc21` (stereo unspecified), for which the melting point lay within 71 to 73 °C.

`CC1C(=O)NC1c1ccccc1` (stereo unspecified) showed a melting point of 92 to 94 °C.

Regarding `c1c[nH]c(C2CCCCN2)n1` (stereo unspecified), the melting point was in the range of 144 to 146 °C.

In turn, `O=C(Cc1nc2ccccc2[nH]1)c1ccccc1` came in with a melting point of 180 to 182 °C.

In turn, `CN(C)C(=O)C1CCC(C(=O)O)CC1` (stereo unspecified) displayed a melting point of 169 to 171 °C.

On to `CCC1(C)NC(=O)N(CCCN)C1=O` (stereo unspecified), for which the melting point was in the range of 63 to 65 °C.

Molecule `O=C(O)CCc1n[nH]c(=O)[nH]c1=O` yielded a melting point of 203 to 205 °C.

Molecule `Cc1cc(C(=O)O)ccc1N1C(=O)C=CC1=O` yielded a melting point of 203 to 205 °C.

`CC(=O)c1sc2nc(C)cc(C)c2c1N`: the melting point was 174 to 176 °C.

Molecule `Cc1ccc(CN2CCOCC2)cc1N` registered a melting point of 125 to 127 °C.

For the molecule `CC(C)(C)Cc1noc2nc(C3CC3)cc(C(=O)O)c12`, the melting point was 164 to 166 °C.

As for `CON(C)S(=O)(=O)c1ccc(Br)cc1`, the melting point is 81 to 83 °C.

On to `COc1ccccc1-c1cnc(CCl)o1`, for which the melting point fell in the range of 86 to 88 °C.

`Cc1sc(=O)[nH]c1-c1ccccc1` displayed a melting point of 171 to 173 °C.

As for `CCCCC(NC(=O)NCC)C(=O)O` (stereo unspecified), the melting point was 96 to 98 °C.

Consider `Cc1[nH]c(=O)[nH]c(=O)c1CCC(=O)O`, for which the melting point fell in the range of 306 to 308 °C.

Molecule `Cc1c(Cl)cc(S(=O)(=O)Cl)cc1[N+](=O)[O-]` came in with a melting point of 60 to 62 °C.

Consider `CCOC(=O)c1noc(C)n1`, for which the melting point lay within 32 to 34 °C.

Consider `Cc1cc(C)n2nc(CCCO)nc2n1`, for which the melting point fell in the range of 89 to 91 °C.

Turning to `O=C1CC(c2ccccc2)CN1` (stereo unspecified), the melting point was 70 to 72 °C.

`NNC(=O)c1cccc(S(=O)(=O)N2CCOCC2)c1` showed a melting point of 140 to 142 °C.

Regarding `CS(=O)(=O)c1ccc(NN)cc1`, the melting point is 132 to 134 °C.

For the molecule `Cc1cccc(COc2cccc(CC(=O)O)c2)c1`, the melting point was in the range of 91 to 93 °C.

The molecule `O=C(O)c1ccc(S)c(Cl)c1` showed a melting point of 219 to 221 °C.

Turning to `Cc1sc(N)nc1-c1ccc(F)cc1`, the melting point fell in the range of 122 to 124 °C.

In the case of `NC(=O)CCOc1ccccc1F`, the melting point is 85 to 87 °C.

As to `COC(=O)c1cccc(C(N)=S)c1`, the melting point was 137 to 139 °C.

In turn, `CCCn1c(N)c(NCCN2CCOCC2)c(=O)[nH]c1=O` came in with a melting point of 153 to 155 °C.

The molecule `O=C(O)c1cn(-c2cccc([N+](=O)[O-])c2)nn1` returned a melting point of 159 to 161 °C.

In turn, `O=S(=O)(c1cccc(F)c1)N1CCNCC1` came in with a melting point of 97 to 99 °C.

For the molecule `O=C(CCl)Nc1ccc2[nH]c(C(F)(F)F)nc2c1`, the melting point was 217 to 219 °C.

In the case of `O=C(O)c1cnc(OCC(F)(F)F)c(Cl)c1`, the melting point was in the range of 162 to 164 °C.

Molecule `COc1ccc(F)cc1C(=O)CBr` gave a melting point of 74 to 76 °C.

Regarding `COc1ccc(C(=O)O)cc1S(=O)(=O)NCc1ccncc1`, the melting point lay in the range of 225 to 227 °C.

For the molecule `[N-]=[N+]=Nc1ccnc(CO)c1`, the melting point lay within 59 to 61 °C.

The molecule `Nc1nc(=O)cn[nH]1` yielded a melting point of 249 to 251 °C.

The molecule `CC(C(=O)O)N1C(=O)C2C3CCC(O3)C2C1=O` (stereo unspecified) registered a melting point of 189 to 191 °C.

As to `COC(=O)c1ccc(F)c(C)c1N`, the melting point lay within 35 to 37 °C.

For the molecule `CNc1ccc([N+](=O)[O-])c(C)c1`, the melting point is 90 to 92 °C.

The molecule `CC(=O)Nc1cccc(N=C=S)c1` yielded a melting point of 154 to 156 °C.

Consider `NNC(=O)c1cc(F)ccc1Br`, for which the melting point is 149 to 151 °C.

With `Cc1cc(C)c2nc(O)cc(C)c2c1`, the melting point was in the range of 261 to 263 °C.

For the molecule `CCNC(=O)c1ccc(N)cc1`, the melting point fell in the range of 73 to 75 °C.

`COC(=O)C(N)c1cccnc1` (stereo unspecified) returned a melting point of 61 to 63 °C.

The molecule `COc1ccc(N2C(=O)CCC(C(=O)O)C2c2ccccc2OC)cc1` (stereo unspecified) had a melting point of 205 to 208 °C.

On to `O=C(O)c1ccc(COc2ccccc2)cc1`, for which the melting point lay in the range of 214 to 216 °C.

In turn, `COC(=O)c1cnc2c(c1)c(C)nn2C` had a melting point of 129 to 131 °C.

`CN(C)c1nccc(C=O)n1` returned a melting point of 50 to 52 °C.

As to `CC(O)c1ccc(-n2cccn2)cc1` (stereo unspecified), the melting point was in the range of 92 to 94 °C.

As for `COc1cc(/C=C/C(=O)O)cc2c1OCCO2`, the melting point lay within 182 to 185 °C.

Turning to `COC(=O)c1csc([N+](=O)[O-])c1`, the melting point is 77 to 79 °C.

`COc1ccccc1SCC(=O)NN` registered a melting point of 109 to 111 °C.

`CN(C)C(=O)c1cc(Oc2ccc(N)cc2)ccn1`: the melting point lay within 113 to 115 °C.

`CCc1ccccc1NC(=O)CN1CCNCC1` gave a melting point of 88 to 90 °C.

Molecule `O=c1cc[nH]c2ccc(Br)cc12` yielded a melting point of 286 to 288 °C.

Molecule `FC(F)Sc1ccc(Nc2nnc(S)s2)cc1` returned a melting point of 188 to 190 °C.

Turning to `O=Cc1ccc(OCCBr)c(Cl)c1`, the melting point was 61 to 63 °C.

`CN1CCN(S(=O)(=O)c2ccc(Cl)c([N+](=O)[O-])c2)CC1` yielded a melting point of 276 to 278 °C.

`N#Cc1ccc(Cl)cc1NC1CCCCC1` returned a melting point of 74 to 76 °C.

As for `O=C(O)c1nn(-c2ccccc2)cc1CCCO`, the melting point lay in the range of 119 to 121 °C.

The molecule `COc1ccc(S(=O)(=O)N2CCc3ccccc32)cc1C(=O)O` came in with a melting point of 136 to 138 °C.

In the case of `CCOc1cccc2cc(C(C)=O)oc12`, the melting point was in the range of 72 to 74 °C.

Regarding `NCC(O)COc1ccc2c(c1)OCO2` (stereo unspecified), the melting point lay within 107 to 109 °C.

On to `Cc1cc2ccn(C)c2c(=O)[nH]1`, for which the melting point lay within 189 to 191 °C.

Molecule `Cc1cnc2ccccc2c1N` showed a melting point of 139 to 141 °C.

Regarding `CC(C)c1ccccc1NC(N)=S`, the melting point lay in the range of 137 to 139 °C.

`CSCc1nnc(S)o1` came in with a melting point of 71 to 73 °C.

On to `Cc1ccccc1OCCC(=O)O`, for which the melting point is 92 to 94 °C.

Regarding `CC(=O)c1ccc(S(=O)(=O)NCCCC(=O)O)cc1`, the melting point fell in the range of 140 to 142 °C.

`Cc1cc(N)ccc1C(=O)N(C)C` gave a melting point of 162 to 164 °C.

In the case of `COc1cc(/C(C)=N\O)ccc1OCc1ccccc1`, the melting point was in the range of 117 to 119 °C.

As to `C=CCn1cnc(-c2ccccc2)c1N`, the melting point was 72 to 74 °C.

For `COC(=O)CC(=O)c1ccncc1`, the melting point is 70 to 72 °C.

As for `Cc1c(Br)cc(S(=O)(=O)Cl)cc1[N+](=O)[O-]`, the melting point was in the range of 122 to 124 °C.

Molecule `CNc1ncc(C(=O)O)s1` returned a melting point of 159 to 161 °C.

`COc1ccc(NS(=O)(=O)c2ccc(N)cc2)cc1OC` had a melting point of 171 to 173 °C.

With `CC(CN(C)C(=O)OC(C)(C)C)C(N)=NO` (stereo unspecified), the melting point lay in the range of 124 to 126 °C.
